Read-outs that look alike come from different tables or passages of the source.
What was measured:
[1] = tested on: NL4-3 (WT); experiment: Cytopathic cell killing assay, cross-resistance profile, infected MT-4 cells; assay type: cell-based, HIV-1
From the text: (§1) The various HIV isolates tested in the Figures are those corresponding to wild-type virus (NL4-3) and the other strains listed by their RT mutations. The three 4xAZT isolates included in the Figures represent AZT drug-resistant variants. For example, the 4xAZT/L100I isolate has five mutations: four mutations confer increased resistance to AZT, and the other mutation is located within the NNRTI binding pocket. TZB and nevir. (nevirapine) are two well-known NNRTIs, included in this experiment for comparison purposes. […]
(§2) In this Example, the antiviral and cellular toxicity of NNRTIs was investigated, using the cytopathic cell killing assay described by Yang (Yang et al., "Characteristics of a Group of Non-nucleoside Reverse Transcriptase Inhibitors with Structural Diversity and Potent Anti-Human Immunodeficiency Virus Activity," Leukemia 9:S75-S85 [1995]). Briefly, in this method cells (e.g., the CEM-SS cell line, available from the NIAID AIDS Research and Reference Program [ARRRP]) were seeded at a density of 5 x 10^3 cells/well, into the wells of a 96-well microtiter plate. The cells were then infected with HIV virus (either mutant or WT), at a multiplicity of infection (MOI) previously determined to provide complete cell killing by 6 days of culture post-infection (e.g., MOI of 0.01-0.05). Each of the HIV isolates was pre-titered to induce equivalent levels of infection based on cell killing or virus production, prior to their use in these assays. A range of test compound concentrations was added to the wells in triplicate (e.g., serial half-log dilutions) to evaluate inhibition of HIV infection. Controls for each assay included drug controls (drug colorimetric control wells), drug cytotoxicity control wells (cells with drug), virus control wells (cells with virus), and cell viability controls (cells only). Positive control drugs (e.g., AZT and ddC) were also run in parallel.
(§3) After six days of incubation at 37°C, cell viability was determined spectrophotometrically at 450 nm for each well, using the metabolic reduction of XTT to a soluble colored formazan. (See, Gartner and Popovic, "Virus Isolation and Production, in Aldovini and Walker (eds.), Techniques in HIV Research, Stockton Press, NY, pp. […] [1991]; and Nara and Fischinger, "Quantitative Infectivity Assay for HIV-1 and HIV-2," Nature 332:469-470 [1988]).
(§4) The in vitro therapeutic index (TI50) was defined as the fold-difference between the EC50 and IC50. The results for the various compounds are included in Figures 8 and 19.

[2] = molecular target: T1, HIV-1 WT RT (Human immunodeficiency virus type 1 group M subtype B, UniProt P03366); experiment: biochemical; conditions: for IC50: read-out: IC50; for inhibition at 1 µM: WT HIV-1 RT, 1 µM drug
T1 construct: purified RT protein (0.015 mg/mL) was incubated in a 100 µL reaction mixture

[3] = tested on: WT virus (NL4-3); experiment: microbe, parasite or virus in culture; assay type: cell-based, HIV-1; conditions: Human immunodeficiency virus 1, NL43, CEM-SS, read-out: EC50
Experimental: Evaluation of these compounds for the inhibition of HIV-1 was determined as the fifty percent cell culture inhibitory concentration (CIC50) in CEMSS cell culture with WT virus (NL4-3).
as §2, §3, §4

[4] = tested on: HIV-1 variant V108I; experiment: Cytopathic cell killing assay, cross-resistance profile, infected MT-4 cells; assay type: cell-based
From the text: as §1, §2, §3, §4

[5] = tested on: HIV-1 variant V106A; experiment: as above; assay type: cell-based; conditions: Human immunodeficiency virus 1, MT4, Table 8; isolate V 106A
From the text: as §1, §2, §3, §4

[6] = tested on: HIV-1 variant K101E; experiment: as above; assay type: cell-based; conditions: isolate K101E
From the text: as §1, §2, §3, §4

[7] = tested on: HIV-1 variant Y181C; experiment: as above; assay type: cell-based; conditions: Human immunodeficiency virus 1, MT4, Table 10 (values in µM); isolate Y181C
From the text: as §1, §2, §3, §4

[8] = tested on: HIV-1 variant K103N; experiment: as above; assay type: cell-based; conditions: for EC50: isolate K103N
From the text: as §1, §2, §3, §4

[9] = tested on: HIV-1 variant M184l; experiment: as above; assay type: cell-based; conditions: Human immunodeficiency virus 1, MT4
From the text: as §1, §2, §3, §4

[10] = tested on: HIV-1 variant L74V; experiment: as above; assay type: cell-based; conditions: Human immunodeficiency virus 1, MT4, Table 8; isolate 1.74V
From the text: as §1, §2, §3, §4

[11] = tested on: HIV-1 variant A98G; experiment: as above; assay type: cell-based; conditions: Human immunodeficiency virus 1, MT4, Table 8; isolate A9SG
From the text: as §1, §2, §3, §4

[12] = tested on: HIV-1 variant L100I; experiment: as above; assay type: cell-based
From the text: as §1, §2, §3, §4

[13] = tested on: HIV-1 variant Y188C; experiment: as above; assay type: cell-based
From the text: as §1, §2, §3, §4

[14] = tested on: HIV-1 isolate 4xAZT; experiment: as above; assay type: cell-based; conditions: Human immunodeficiency virus 1, MT4, Table 8; isolate 4XAZT
From the text: as §1, §2, §3, §4

[15] = tested on: HIV-1 variant Y188H; experiment: as above; assay type: cell-based; conditions: Human immunodeficiency virus 1, MT4
From the text: as §1, §2, §3, §4

[16] = tested on: HIV-1 variant V179D; experiment: as above; assay type: cell-based; conditions: Human immunodeficiency virus 1, MT4, Table 8; isolate V179D
From the text: as §1, §2, §3, §4

[17] = tested on: HIV-1 isolate 4xAZT/L100I; experiment: as above; assay type: cell-based; conditions: Human immunodeficiency virus 1, MT4, Table 8; isolate 4XA7T L 1001
Experimental: The various HIV isolates tested in the Figures are those corresponding to wild-type virus (NL4-3) and the other strains listed by their RT mutations. The three 4xAZT isolates included in the Figures represent AZT drug-resistant variants. […]
as §2, with “Briefly,” for “In this Example, the antiviral and cellular toxicity of NNRTIs was investigated, using the cytopathic cell killing assay described by Yang (Yang et al., "Characteristics of a Group of Non-nucleoside Reverse Transcriptase Inhibitors with Structural Diversity and Potent Anti-Human Immunodeficiency Virus Activity," Leukemia 9:S75-S85 [1995]). Briefly,”
as §3
The in vitro therapeutic index (TI50) was defined as the fold-difference between the EC50 and IC50.

[18] = tested on: HIV-1 isolate 4xAZT/Y181C; experiment: as above; assay type: cell-based; conditions: Human immunodeficiency virus 1, MT4, Table 8; isolate 4XAZT /Y181C
From the text: as §1, §2, §3, §4

[19] = Human immunodeficiency virus 1, NL43, MT4, Table 8, isolate N1.43
[20] = Human immunodeficiency virus 1, NL43, MT4, Table 10 (values in µM), isolate NL4-3 (WT)
[21] = Table 7, read-out: %inhibn (1µM)
[22] = Table 7, concentration reducing cell killing or virus production by 50%, HIV-1 WT
[23] = Table 11, CEMSS/NL4-3, NRVC = reduction in viral CPE not seen (footnote)
[24] = Human immunodeficiency virus 1, MT4, Table 8, isolate V1081
[25] = Human immunodeficiency virus 1, MT4, Table 10 (values in µM), isolate V108l
[26] = Human immunodeficiency virus 1, MT4, Table 8
[27] = Human immunodeficiency virus 1, MT4, Table 10 (values in µM)
[28] = Human immunodeficiency virus 1, MT4, Table 8, isolate 1.1001
[29] = Human immunodeficiency virus 1, MT4, Table 10 (values in µM), isolate L1001
[30] = Human immunodeficiency virus 1, MT4, Table 8, isolate Y 188C

SMILES: COc1cccc2c1nc(-c1c(F)cccc1F)n2Cc1c(F)cccc1F [compound 44, 1-(2,6-difluorobenzyl)-2-(2,6-difluorophenyl)-4-methoxylbenzimidazole]
- EC50 [1, 19]: 0.06 µM
- EC50 [1, 20]: 0.165 µM
- IC50 ([2]; HIV-1 WT RT): 7.3 nM
- IC50 ([2]; Table 7, HIV-1 WT RT): 7.3 nM
- inhibition at 1 µM [2, 21]: 85%
- IC50 ([2]; Table 11, WT RT): 7.3 nM
- IC50 ([2]; WT RT): 7.3 nM
- EC50 [3, 22]: 4.6 nM
- EC50 [3, 23]: 60 nM
- EC50 ([3]; cytopathic cell killing assay, HIV-1 WT): 4.6 nM
- EC50 [4, 24]: 2.5 µM
- EC50 [4, 25]: 2.82 µM
- EC50 [5]: 1400 nM
- EC50 [6, 26]: 3.3 µM
- EC50 [6, 27]: 2.82 µM
- EC50 [7]: 0.26 µM
- EC50 [8, 26]: > 20 µM
- EC50 [8, 27]: > 50 µM
- activity against the K103N mutation / isolate ([8]; result in words, cytopathic cell killing assay): failed to show any activity
- EC50 [9]: 160 nM
- EC50 [10]: 80 nM
- EC50 [11]: 300 nM
- EC50 [12, 28]: 0.1 µM
- EC50 [12, 29]: 0.16 µM
- EC50 [13, 30]: 0.3 µM
- EC50 [14]: 6000 nM
- EC50 [15]: 260 nM
- EC50 [16]: 200 nM

SMILES: Fc1cccc(F)c1Cn1c(-c2c(F)cccc2F)nc2c(Cl)cccc21 [compound 55, 4-chloro-1-(2,6-difluorobenzyl)-2-(2,6-difluorophenyl)benzimidazole]
- EC50 [1, 19]: 0.1 µM
- EC50 [1, 20]: 0.5 µM
- inhibition at 1 µM ([2]; Table 6, average of two experiments done in triplicates, read-out: %Inhibn (1µM)): 75%
- IC50 ([2]; Table 7, HIV-1 WT RT): 2630 nM
- inhibition at 1 µM [2, 21]: 75%
- IC50 ([2]; Table 11, WT RT): 2630 nM
- EC50 [3, 22]: 440 nM
- EC50 [3, 23]: 440 nM
- EC50 [17]: 200 nM
- EC50 [4, 24]: 3.6 µM
- EC50 [4, 25]: 3.2 µM
- EC50 [5]: > 10000 nM
- EC50 [6, 26]: > 20 µM
- EC50 [6, 27]: > 20 µM
- EC50 [7]: 8.4 µM
- EC50 [8, 26]: > 20 µM
- EC50 [8, 27]: 10.2 µM
- EC50 [10]: 500 nM
- EC50 [11]: 5000 nM
- EC50 [12, 28]: 0.2 µM
- EC50 [12, 29]: 0.3 µM
- EC50 [13, 30]: 5.4 µM
- EC50 ([13]; Human immunodeficiency virus 1, MT4, Table 10 (values in µM), isolate Y188C): 3.4 µM
- EC50 [14]: 200 nM
- EC50 [18]: > 20000 nM
- EC50 [16]: 800 nM
